Assay results reported in patent US20230278972A1, “SUBSTITUTED HALOALKYL SULFONANILIDE HERBICIDES” (FMC Corporation, priority 2020, published 2023).

Assays:
Type in all cases: in vivo
kochia (Bassia scoparia) = assay: Test A1 preemergence, kochia
Procedure, shortened: (§1)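 Both timings started from seed in a loam-sand blend. Preemergence pots got a directed soil application immediately; postemergence pots were sprayed when seedlings had one or two leaves and stood 2–10 cm. Each compound was prepared in a non-phytotoxic solvent plus surfactant.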

[1] = tested on: Foxtail, Giant (giant foxtail, Setaria faberi); assay: Test A1 preemergence, Foxtail, Giant
Procedure, shortened: as §1

[2] = tested on: Foxtail, Giant (giant foxtail, Setaria faberi); assay: Test A1 postemergence, Foxtail, Giant; settings: Postemergence
Procedure, shortened: (§2)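 Pre: seeds in loam/sand blend, directed soil spray. Post: potted plants, same soil, 2–10 cm, 1–2 leaf stage. Chemicals in non-phytotoxic solvent + surfactant for both.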

[3] = tested on: Ryegrass, Italian (Italian ryegrass, Lolium multiflorum); assay: Test A1 preemergence, Ryegrass, Italian
Procedure, shortened: as §1

soybean (Glycine max) = assay: Test A1 postemergence, soybean; settings: Postemergence
Procedure, shortened: as §2

corn (Zea mays) = assay: Test A1 postemergence, corn; settings: Postemergence
Procedure, shortened: as §1

rice (Oryza sativa) = assay: Test B1 flooded paddy test, rice; settings: 250 g ai/ha, Flood, applied to paddy water, 2-leaf stage, visually evaluated after 10 to 14 days
Description: A dash (-) response means no test result.

[4] = tested on: wheat (Triticum aestivum); assay: Test A1 preemergence, wheat
Procedure, shortened: as §1

[5] = tested on: horseweed (Erigeron canadensis); assay: Test A1 postemergence, horseweed; settings: Postemergence
Procedure, shortened: as §2

[6] = 31 g ai/ha, 0 to 100 scale (0 no effect, 100 complete control)
[7] = 125 g ai/ha, 0 to 100 scale, 0 no effect, 100 complete control
[8] = 31 g ai/ha, 0 to 100 scale (0 no effect, 100 complete control), 10 days

| SMILES | Plant response rating, Kochia (kochia (Bassia scoparia); [6]) | Plant response rating, Kochia (kochia (Bassia scoparia); [7]) | Plant response rating, Foxtail, Giant [1, 6] | Plant response rating, Foxtail, Giant [1, 7] | Plant response rating, Foxtail, Giant [2, 8] | Plant response rating, Foxtail, Giant ([2]; 125 g ai/ha, 0 to 100 scale) | Plant response rating, Ryegrass, Italian [3, 6] | Plant response rating, Ryegrass, Italian [3, 7] | Plant response rating, Soybean (soybean (Glycine max); [8]) | Plant response rating, Soybean (soybean (Glycine max); 125 g ai/ha, 0 to 100 scale) | Plant response rating, Corn (corn (Zea mays); [8]) | Plant response rating, Corn (corn (Zea mays); 125 g ai/ha, 0 to 100 scale) | Plant response rating, Rice (0 to 100 scale, 0 is no effect, 100 is complete control) (rice (Oryza sativa)) | Plant response rating, Wheat [4, 6] | Plant response rating, Wheat [4, 7] | Plant response rating, Horseweed [5, 8] | Plant response rating, Horseweed ([5]; 125 g ai/ha, 0 to 100 scale) |
| --- | --- | --- | --- | --- | --- | --- | --- | --- | --- | --- | --- | --- | --- | --- | --- | --- | --- |
| CCOC1CC(c2cc(N(COC(=O)C(C)(C)C)S(=O)(=O)C(F)(F)F)c(C)cc2C)=NO1 (centres unmarked) [Compound 339] | 0 | 90 | 0 | 20 | 0 | 50 | 30 | 50 | 0 | 10 | 0 | 30 | 20 | 0 | 0 | 100 | 100 |
| Cc1cc(C)c(C2=NOC3OCCC23)cc1NS(=O)(=O)C(F)(F)F (centres unmarked) [Compound 349] | 80 | 100 | 90 | 100 | 30 | 90 | 70 | 80 | 30 | 70 | 40 | 90 | 45 | 20 | 70 | 90 | 100 |
| Cc1cc(C)c(N(COC(=O)C(C)(C)C)S(=O)(=O)C(F)(F)F)cc1C(=O)N1CCC(F)(F)CC1 [Compound 350] | 20 | 70 | 0 | 80 | 10 | 30 | 30 | 30 | 10 | 40 | 0 | 0 | 35 | 0 | 10 | 90 | 100 |
| CCOC(=O)N(c1cc(C(=O)N2CCC(F)(F)CC2)c(C)cc1C)S(=O)(=O)C(F)(F)F [Compound 351] | 20 | 90 | 30 | 100 | 30 | 50 | 40 | 90 | 30 | 50 | 0 | 70 | 50 | 10 | 50 | 100 | 90 |
| Cc1cc(C)c(N(COC(=O)C(C)(C)C)S(=O)(=O)C(F)(F)F)cc1C1=NOC2OCCC12 (centres unmarked) [Compound 352] | 30 | 100 | 30 | 100 | 20 | 70 | 20 | 100 | 20 | 60 | 20 | 80 | 35 | 10 | 20 | 80 | 100 |
| Cc1cc(C)c(N(COC(=O)C(C)(C)C)S(=O)(=O)C(F)(F)F)cc1C(=O)N1CCC(C)CC1 [Compound 353] | 0 | 20 | 10 | 80 | 20 | 50 | 0 | 0 | 50 | 60 | 0 | 0 | 20 | 0 | 0 | 70 | 100 |
| CCOC(=O)N(c1cc(C(=O)N2CCC(C)CC2)c(C)cc1C)S(=O)(=O)C(F)(F)F [Compound 354] | 0 | 20 | 80 | 100 | 0 | 70 | 20 | 70 | 50 | 60 | 0 | 0 | 15 | 0 | 30 | 80 | 90 |
| Cc1cc(C2CC2)c(C2=NOC3CCCC23)cc1N(COC(=O)C(C)(C)C)S(=O)(=O)C(F)(F)F (centres unmarked) [Compound 355] | 0 | 0 | 0 | 60 | 10 | 60 | 20 | 30 | 10 | 40 | 0 | 20 | 10 | 10 | 10 | 70 | 70 |
| Cc1c(NS(=O)(=O)C(F)(F)F)cc(C(=O)N2CCC(Cl)CC2)c(C)c1C [Compound 356] | 0 | 30 | 90 | 100 | 10 | 40 | 0 | 40 | 50 | 80 | 0 | 40 | 0 | 0 | 30 | 50 | 80 |
| Cc1c(NS(=O)(=O)C(F)(F)F)cc(C(=O)N2CCC(F)(F)CC2)c(C)c1C [Compound 357] | 20 | 40 | 10 | 90 | 0 | 20 | 0 | 30 | 40 | 90 | 0 | 0 | 10 | 0 | 10 | 20 | 80 |
